Measurements published in publication PMC4741889, “Ligand-based chemoinformatic discovery of a novel small molecule inhibitor targeting CDC25 dual specificity phosphatases and displaying in vitro efficacy against melanoma cells” (Oncotarget, 2015).

Assays:
pAkt protein levels = assay: Western blotting of pAkt (Ser473) in SAN cells; assay type: cell-based, human; conditions: 100 μM, 1 or 2 h
Experimental: The molecular mechanisms that regulate the cytotoxic potential of 7 in melanoma cells were further investigated through the evaluation of the activation state of protein kinase B (pAkt), one of the key proteins involved in the control and regulation of cell survival. To this aim, the protein levels of pAkt have been analyzed after 2- and 4-h incubation of A2058 cells with 7. […] It is known that Akt regulates the process of cell survival by phosphorylating different substrates, directly or indirectly involved in the apoptotic program. One of these targets is p53, a protein with a tumor-suppressor activity that regulates the cell cycle, as well as the expression of several genes involved in the apoptosis. […]
A2058 cells were seeded into 6-well-plates (3 × 10^5 cells/plate) for 24 h at 37°C and then treated at different times with 100 μM compound 7 or 0.5% DMSO. […] The protein concentration was determined by the method of Bradford, using bovine serum albumin (BSA) as standard. […] Membranes were then analysed by an enhanced chemiluminescence reaction, using Super Signal West Pico kit (Pierce) according to manufacturer's instruction; signals were visualized by autoradiography. […]
0.5% DMSO or 100 μM compound 7 for 1 or 2 h, were analyzed by Western blotting using an antibody raised against pAkt (Ser473). […]

CDC25B = biological target: T1, CDC25B (Homo sapiens, UniProt P30305); assay: Residual phosphatase activity of recombinant CDC25B, fluorimetric OMFP assay; assay type: biochemical; conditions: 10 nM CDC25B, 25 μM OMFP, read-out: CDC25B residual activity (%) in the presence of [inhibitor]
T1 construct: Recombinant forms of the catalytic domains of CDC25A, -B and -C were obtained through the vectors pET28a-CDC25A-cd, pET28a-CDC25B-cd and pET28a-CDC25C-cd; made in house
T1 sequence (P30305 431-538 limits assumed): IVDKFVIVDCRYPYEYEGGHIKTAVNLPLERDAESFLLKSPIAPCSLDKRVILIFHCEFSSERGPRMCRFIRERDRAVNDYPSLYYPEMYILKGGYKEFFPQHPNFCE
Experimental: Among the twenty-five structures identified from the multiple ligand-based chemoinformatic approach, eight compounds (2, 10, 12–14, and 16–18) were excluded from the analysis, because endowed with a strong fluorescent signal, which interfered with the emission wavelength of the synthetic substrate 3-O-methylfluorescein phosphate (OMFP) used in the fluorimetric assay. The inhibition of the phosphatase activity of CDC25B by the remaining seventeen analogs was evaluated in the presence of two different concentrations of these compounds (Table 2). […] For this reason, only one of these latter compounds, i.e. 3, was included in the following analysis.
The enzymatic activity of the catalytic domains of CDC25A, -B and -C were determined through a fluorimetric method, which monitored the dephosphorylation of the synthetic substrate OMFP, essentially as previously described. In steady-state enzyme kinetic studies, the residual phosphatase activity of purified recombinant CDC25B was measured at 30°C in the presence of different concentrations of the various inhibitors, using a computer-assisted Cary Eclipse spectrofluorimeter (Varian) equipped with an electronic temperature controller. Excitation and emission wavelengths were set at 485 and 530 nm, respectively; both excitation and emission slits were set at 10 nm. The reaction mixture contained 10 nM CDC25B and different concentrations of the various inhibitors in 500 μL final volume of 20 mM Tris-HCl, pH 7.8, 1 mM DTT. DMSO was used as vehicle control. The reaction started by the addition of 25 μM OMFP, and the formation of the fluorescent product o-methylfluorescein was monitored continuously. The rate of OMFP hydrolysis was expressed as arbitrary units per min (a.u./min). The comparison of the rates determined in the absence and in the presence of the various inhibitors allowed the calculation of the residual phosphatase activity, expressed as a percentage.

A2058 cells = assay: Cell cycle analysis by PI flow cytometry, A2058 cells; assay type: cell-based, human; conditions: A2058, 100 μM
Experimental: As CDC25 phosphatases are key cell cycle regulators, the effect of 7 on cell cycle progression was investigated in detail. To this aim, asynchronously growing A2058 and SAN cells were treated at different times with 100 μM compound 7, and then cell cycle analysis was cytofluorimetrically monitored after propidium iodide (PI) incorporation. […] After 16-h incubation with […], cells were mainly and almost equally distributed in G0/G1 and G2/M phases (the ratio between them being 0.96), whereas the cellular population in the S phase was essentially undetectable. […] A similar general picture emerged from the effect of compound 7 on cell cycle progression of SAN cells (Supplementary Figure S3).
Cells were seeded into 6-well plates at 3 × 10^5 cells/well for 24 h at 37°C; after the addition of 100 μM 7 or 0.5% DMSO as a vehicle control, the incubation of treated cells continued for 16 or 24 h. After each treatment, cells were harvested with trypsin, centrifuged and the pellet was resuspended in phosphate-buffered saline (PBS). For cell cycle analysis, cells were fixed with 70% (v/v) cold ethanol and stored at −20°C for 1 h. […] After incubation at 4°C for 30 min, cells were analyzed with a FACScan flow cytometer (Becton Dickinson) for evaluating the distribution in cell cycle phases or the presence of nuclei with a DNA content lower than the diploid.

O=C(O)C1CCCCC1c1c2ccc(=O)cc-2oc2cc(O)ccc12 (centres unmarked) [Compound 7, 2-(6-hydroxy-3-oxo-3H-xanthen-9-yl)cyclohexanecarboxylic acid]
Akt activation (pAkt) (pAkt protein levels): early reduction of Akt activation | remaining activity at 0.2 µM (CDC25B; 0.2 μM inhibitor): 44% | remaining activity at 1 µM (CDC25B; 1 μM inhibitor): 1% | ratio between G0/G1 and G2/M (A2058 cells; 16 h, vehicle 0.96): 0.38 | ratio between G0/G1 and G2/M (A2058 cells; 24 h, untreated 1.23): 0.45
